Series [1] deals with S. aureus biofilm formation. Nature of the series: Crystal violet biofilm inhibition assay. It is filed as cell-based, Staphylococcus aureus. Conditions: for effect on biofilm formation (in words): wild type S. aureus, 1–100 μM. On the procedure: Overnight cultures of S. aureus (wild-type, transposon mutants and complemented) strains (Table S3) grown in TSB, were subcultured on fresh TSB and grown to OD600 of 0.5. Biofilms were cultured in 96 well plates by transferring 1 μL of the culture to 200 μL of TSB plus 1% glucose with or without the inhibitors and incubated for 16 hours at 37°C without agitation. The inhibitor concentrations ranged from 1, 5, 10, 50 and 100 μM final concentration. Equal volume of DMSO was added as control. The wells were washed to remove the planktonic cells and the plates air-dried before staining with 200μL of 0.1% w/v crystal violet for 10 minutes at room temperature. The wells were washed to remove excess dye and blotted to dry. Each well was filled with 200μL of DMSO for 10 minutes at room temperature to dissolve the dye. The absorbance was measured at 590 nm using Spark multimode microplate reader (TECAN). The data represents n = 3 independent experiments and are expressed as a percentage of the uninhibited wild-type bacteria. All the data are normalized such that 100% represent untreated WT S. aureus. P values were determined using ordinary one-way ANOVA multiple comparisons GraphPad Prism 10.0 software. *P < 0.05, **P < 0.01, ***P < 0.001 and ****P < 0.0001.

The test system of another series is S. epidermidis. Briefly: Bacterial growth inhibition assay, S. epidermidis. The class given is cell-based, Staphylococcus epidermidis. On the procedure: (§1) Bacteria were streaked from glycerol stocks onto agar plates and grown overnight at 37°C. A single colony was inoculated in either Tryptic Soy Broth (TSB; Sigma-Aldrich, St. Louis, MO; used for most species) or Bacto Brain Heart Infusion (BHI; Becton, Dickinson, and Company, Franklin Lakes, NJ; used for L. monocytogenes and S. pyogenes) and grown at 37°C shaking until mid-exponential phase (OD600 = 0.5), then diluted 1:10 in cation-adjusted Mueller Hinton Broth (MHB2, Millipore Sigma, Bedford, MA; used for most species) or BHI (for L. monocytogenes and S. pyogenes). 15 μl of this dilution was added to 135 μl of MHB2 or BHI in a flat-bottom clear 96-well plate for a starting inoculum of ~ 5 × 10^5 CFU/ml.
(§2) For bacterial growth inhibition assay, wild-type S. aureus and transposon mutants (fphB::Tn, fphE::Tn and fphH::Tn) were grown with compounds at final concentrations ranging from 1–100 μM and compared to growth in media with an equivalent percentage of DMSO. […] All growth curves were repeated at least twice and analyzed in GraphPad Prism 10.0 software. […] The cultures were incubated overnight at 37°C, 5% CO2 before their optical density was read. The EC50 of the antibiotics against the bacteria in the presence or absence of N34 were determined by fitting the normalized data into a four-parameter logistic model in GraphPad Prism 10.0 software.

Series [2] has as its system S. aureus wild type and fph transposon mutants. Briefly: Bacterial growth inhibition assay, S. aureus. It is filed as cell-based, Staphylococcus aureus. The conditions noted are these: 1–100 μM. On the procedure: as §1
(§3) For bacterial growth inhibition assay, wild-type S. aureus and transposon mutants (fphB::Tn, fphE::Tn and fphH::Tn) were grown with compounds at final concentrations ranging from 1–100 μM and compared to growth in media with an equivalent percentage of DMSO. Each condition was plated as technical duplicates. The plate was incubated at 37°C with shaking every 15 minutes followed by measurement of OD600 for 14 hr. All growth curves were repeated at least twice and analyzed in GraphPad Prism 10.0 software. For bacterial resistance analysis, overnight culture of S. aureus Newman was diluted to an OD600 of 0.01 in MHB. This was followed by pretreatment with 20 μM N34 or equivalent DMSO volume as control. The pretreatment was allowed to proceed for 3 hr before initiating treatment with different concentrations of the test antibiotics (Table S5). The cultures were incubated overnight at 37°C, 5% CO2 before their optical density was read. The EC50 of the antibiotics against the bacteria in the presence or absence of N34 were determined by fitting the normalized data into a four-parameter logistic model in GraphPad Prism 10.0 software.

The test system of the next series is S. aureus Newman. Nature of the series: Antibiotic susceptibility after N34 pretreatment. The class given is cell-based, Staphylococcus aureus. The conditions noted are these: 20 μM N34 pretreatment, then antibiotics; Table S5. On the procedure:
The strong antibiofilm activity of the boronic acid compounds argues for their possible use in combination therapy with antibiotics to treat staphylococcal infections. Therefore, we wanted to test if the N34 treatment impacts the susceptibility profile of the S. aureus to antibiotics. To test this, we pretreated bacteria with a sub-inhibitory concentration of N34 (20 μM) for 2 hours at 37°C followed by treatment with selected antibiotics.
as §3, with “This was followed by pretreatment with 20 μM N34 or equivalent DMSO volume as control. The pretreatment was allowed to proceed for 3 hr before initiating treatment with different concentrations of the test antibiotics (Table S5).” left out

The test system of a further series is Escherichia coli. Briefly: Bacterial growth inhibition assay, E. coli. It is filed as cell-based.
For series [3], the system named is Fph enzymes in live S. aureus cells (USA300). Briefly: Competition of FP-alkyne labeling in live S. aureus cells. The class given is cell-based, Staphylococcus aureus. As for the experimental part: (§4) One colony of each of S. aureus wild-type and transposon mutants fphB::Tn, fphE::Tn and fphH::Tn picked from growth on a Tryptic soya agar plate were inoculated in 5 mL of Tryptic soya broth (TSB). The overnight bacterial cultures were spun down at 5,000 g for 10 min and pellet was collected. The pellets were washed twice in 1X PBS buffer and resuspended in the same buffer. Cells were first preincubated with the indicated concentrations of inhibitors for 2hr at 37°C. The cells were washed twice with 1X PBS buffer. The resuspended pellets were incubated with Fluorophosphonate-alkyne (FP-alkyne) for 30 min at 37°C. Cells were washed again twice with 1X PBS buffer and resuspended in with 1X PBS and 0.1% Triton–X and lysed by beat beating at 4°C. Next, lysed cells (20 μL) were mixed with 2.16 μL of freshly prepared click mix (0.5 μL of 50 mM CuSO4 in H2O, 1.16 μL of 100 mM BTTAA in DMSO, and 0.5 μL of N3-Cy5 in DMSO) and 1.16 μL of 300 mM sodium ascorbate solution in H2O and incubated at 37 °C for 30 min. Next step, 20 μL of 4X SDS loading buffer was added in each sample and boiled at 100 °C for 10 min. The processed samples were allowed to cool and analyzed by SDS-PAGE (12%) running at 120 V in an electrophoresis chamber. Cy5 fluorescence was imaged using the Cy5 channel on a Typhoon 9410 Imager (Amersham Biosciences).

The next series addresses T1, rFphH (Staphylococcus aureus, UniProt A0A0H2XJL0).
T1 construct: otherwise full-length FphE (Uniprot ID Q2FDS6) and FphH (A0A0H2XJL0) proteins; His6 (3C-cleavable, pETNKI-his-3C-LIC vector) (N); made in house; E. coli is inferred from the pET28a-type vector, IPTG induction and LB/kanamycin
T1 sequence (A0A0H2XJL0 1-246): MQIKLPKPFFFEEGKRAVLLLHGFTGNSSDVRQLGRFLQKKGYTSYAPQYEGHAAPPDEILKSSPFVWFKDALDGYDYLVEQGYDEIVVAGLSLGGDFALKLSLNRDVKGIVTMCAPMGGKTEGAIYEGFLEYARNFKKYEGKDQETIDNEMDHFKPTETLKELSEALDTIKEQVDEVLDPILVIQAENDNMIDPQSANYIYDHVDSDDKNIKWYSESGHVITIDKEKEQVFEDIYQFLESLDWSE
Briefly: FP-Cy5 active site labeling of recombinant protein, rFphH. The class given is binding. Conditions: 500 nM rFphH. As for the experimental part:
(§5) For activity-based protein labeling experiments, 500 nM of rFphB, rFphE and rFphH in 1X PBS and 0.1% Triton–X were preincubated with different concentrations of inhibitors or DMSO for 2hr at room temperature, followed by adding 300 nM of fluorophosphonate (FP) alkyne and incubated for 30 min at room temperature. Next, 20 μL of the reaction volume were mixed with 2.16 μL of freshly prepared click mix (0.5 μL of 50 mM CuSO4 in H2O, 1.16 μL of 100 mM BTTAA in DMSO, and 0.5 μL of N3-Cy5 in DMSO) and 1.16 μL of 300 mM sodium ascorbate solution in H2O. Samples were incubated at 37°C for 30 min, boiled in SDS loading buffer and analyzed by SDS–PAGE. Cy5 fluorescence was imaged using the Cy5 channel on a Typhoon 9410 Imager (Amersham Biosciences).

Another series concerns Pseudomonas aeruginosa. Briefly: Bacterial growth inhibition assay, P. aeruginosa. It is filed as cell-based. As for the experimental part: as §1, §2
The nature of series [4]: Cytotoxicity assay (CellTiter-Blue). It is filed as cell-based. The conditions noted are these: human; HEK293 cells, 48hr of incubation. (In general: Alamar Blue is a resazurin reagent that responds to reducing activity.)
The subject of the next series is Streptococcus pyogenes. Nature of the series: Bacterial growth inhibition assay, S. pyogenes. The class given is cell-based. On the procedure:
as §1, §2

The target in series [5] is T2, rFphB (Staphylococcus aureus, UniProt A0A0H2XJG5).
T2 construct: made in house
T2 sequence (A0A0H2XJG5 1-322): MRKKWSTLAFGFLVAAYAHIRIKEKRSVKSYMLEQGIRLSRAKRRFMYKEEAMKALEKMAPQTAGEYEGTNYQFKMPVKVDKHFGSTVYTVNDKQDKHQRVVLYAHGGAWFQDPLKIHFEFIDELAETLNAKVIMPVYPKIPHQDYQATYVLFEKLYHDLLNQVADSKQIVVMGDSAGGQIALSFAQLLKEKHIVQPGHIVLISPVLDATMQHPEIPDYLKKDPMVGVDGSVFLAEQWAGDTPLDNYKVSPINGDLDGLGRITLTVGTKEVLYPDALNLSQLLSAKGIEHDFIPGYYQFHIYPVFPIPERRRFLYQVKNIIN
Briefly: Intact protein LC-MS of rFphB with inhibitor. It is filed as binding. The conditions noted are these: rFphB:X20 1:10. As for the experimental part: Next, 10 μL of the labeled sample was injected and analyzed by LC-MS. For LC-MS conditions, 95% solvent A (0.1% formic acid in LC-MS grade water), 5% solvent B (0.1% formic acid in LC-MS grade acetonitrile) at 0.6 mL/min was used for 2 min to remove excess of salts into waste before a linear 6-minute gradient from 80% solvent A (20% solvent B) to 20% solvent A (80% solvent B), followed by a one-minute 95% solvent A (5% solvent B). Protein labeling efficiency was quantified by UV. The acquired mass of protein was deconvoluted using the deconvolution software in Agilent Bioanalysis Software package.

The target in series [6] is T3, Fph enzymes in live S. aureus cells (USA300) (Staphylococcus aureus, UniProt A0A0H2XJG5).
T3 construct: endogenous in cells; host or cells: live S. aureus USA300 (LAC) wild-type cells
T3 sequence (A0A0H2XJG5 1-322): T2 sequence (A0A0H2XJG5 1-322)
Briefly: Competition of FP-alkyne labeling in live S. aureus cells. The class given is cell-based. The conditions noted are these: live cells, increasing concentrations, 120 min. On the procedure:
as §4

A further series deals with HEK293 cells. Briefly: Cytotoxicity assay (CellTiter-Blue). The class given is cell-based. The conditions noted are these: mammalian cells.
The target in series [7] is T2, rFphB. Briefly: FP-Cy5 active site labeling competition of recombinant protein, rFphB. It is filed as binding. As for the experimental part: as §5

Consider `OB(O)c1ccc(C(F)(F)F)s1` [N34], for which the “effect on biofilm formation in transposon mutants (in words)” value in series [1] (fphH or fphE transposon mutant) is “not further increased by addition of even 100 μM concentrations of N34”. Further, the “effect on biofilm formation (in words)” value in [1] is reported as “most pronounced effects”. In addition, the figures for the “growth inhibition (in words)” value in the series with S. epidermidis and in the series on Streptococcus pyogenes were “inhibited only by the FphH inhibitor N34” and “no growth inhibition”, respectively. In series [2], the “effect on S. aureus growth (in words)” value was “both the fphE and fphH mutants grew slower than wild type”. In addition, the “impact of N34 pretreatment on antibiotic susceptibility (in words)” value in the series on S. aureus Newman is recorded as “does not impact resistance or susceptibility profiles of the antibiotics”. Further, the “growth defect (in words)” value in the series with Escherichia coli and in the series on Pseudomonas aeruginosa was “no significant growth defect” throughout. In addition, the “competition of FP labeling in live cells (in words)” value in series [3] (100 μM compound, live S. aureus cells) is recorded as “blocked FP labeling of FphH”. Moreover, the “concentration giving partial inhibition of FphE and other lower molecular weight Fph proteins” value in series [3] (live cells, doses 5–100 μM, 120 min preincubation) is no less than 50 µM. Further, the “competition of FP-Cy5 labeling of rFphH (in words)” value on rFphH is reported as “dose-dependently blocked labeling of rFphH”. The CC50 (as a rule, the concentration giving 50% cytotoxicity) at 48 h in [4] is greater than 200 µM.

Turning to `COc1cc2c(cc1S(=O)(=O)F)C(=O)NCCC2` [X20], the reduction of biofilms in series [1] (WT cells, highest concentrations) is given as 60%; in [1] (fphB mutant) it was 40%. Moreover, in series [1], the “effect on biofilm formation (in words)” value is recorded as “significant inhibition of biofilm formation”. Further, in series [2], the “effect on S. aureus growth (in words)” value was “minimal effect on planktonic growth”. On rFphB [5], the “adduct formation on rFphB (in words)” value is given as “a single X20 adduct formed”. Further, the “competition of FP-alkyne labeling of native FphB (in words)” value in series [6] was “retains both its potency and selectivity towards the natively expressed FphB”. Besides, the “off-target effects in mammalian cells (in words)” value in the series with HEK293 cells is “did not show any off-target effects in mammalian cells”. At rFphB [7], the “competition of FP-Cy5 labeling of rFphB (in words)” value was “dose-dependently blocked labeling of rFphB”.

(Values after publication PMC11661381, “Covalent-fragment screening identifies selective inhibitors of multiple Staphylococcus aureus serine hydrolases important for growth and biofilm formation” (Research Square, 2024).)
